Measured values published in article PMC8213057, “Targeting ALK2: An Open Science Approach to Developing Therapeutics for the Treatment of Diffuse Intrinsic Pontine Glioma” (Journal of Medicinal Chemistry, 2020).
Several values for one entry are separate records, joined by “and”; a condition that tells them apart may be missing. Identical values can stand only once.

Experiments:
[1] = target: VRK2 (Homo sapiens, UniProt Q86Y07); conditions: 1 μM; Run 1, Run 2
[2] = target: NEK7 (Homo sapiens, UniProt Q8TDX7); conditions: 1 μM; Run 1, Run 2
[3] = target: T1, DYRK3 (Homo sapiens, UniProt O43781); conditions: 1 μM; Run 1, Run 2
T1 sequence (O43781 1-588): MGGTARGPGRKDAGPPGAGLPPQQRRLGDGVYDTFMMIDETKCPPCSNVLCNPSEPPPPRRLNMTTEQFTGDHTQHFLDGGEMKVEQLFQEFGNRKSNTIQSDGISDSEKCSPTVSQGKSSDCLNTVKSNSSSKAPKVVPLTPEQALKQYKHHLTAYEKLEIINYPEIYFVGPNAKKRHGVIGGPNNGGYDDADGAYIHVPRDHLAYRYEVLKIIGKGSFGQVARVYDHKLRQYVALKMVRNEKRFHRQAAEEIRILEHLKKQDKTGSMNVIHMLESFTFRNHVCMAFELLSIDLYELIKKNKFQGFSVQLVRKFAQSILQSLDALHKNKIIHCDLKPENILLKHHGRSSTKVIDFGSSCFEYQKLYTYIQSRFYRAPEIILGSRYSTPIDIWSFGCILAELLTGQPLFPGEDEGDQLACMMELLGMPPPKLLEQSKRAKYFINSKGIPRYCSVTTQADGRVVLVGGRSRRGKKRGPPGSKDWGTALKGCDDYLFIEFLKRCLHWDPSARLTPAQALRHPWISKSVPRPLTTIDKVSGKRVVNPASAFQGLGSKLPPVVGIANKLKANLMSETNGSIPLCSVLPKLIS

[4] = target: T2, GRK1 (Homo sapiens, UniProt Q15835); conditions: 1 μM; Run 1, Run 2
T2 sequence (Q15835 1-563): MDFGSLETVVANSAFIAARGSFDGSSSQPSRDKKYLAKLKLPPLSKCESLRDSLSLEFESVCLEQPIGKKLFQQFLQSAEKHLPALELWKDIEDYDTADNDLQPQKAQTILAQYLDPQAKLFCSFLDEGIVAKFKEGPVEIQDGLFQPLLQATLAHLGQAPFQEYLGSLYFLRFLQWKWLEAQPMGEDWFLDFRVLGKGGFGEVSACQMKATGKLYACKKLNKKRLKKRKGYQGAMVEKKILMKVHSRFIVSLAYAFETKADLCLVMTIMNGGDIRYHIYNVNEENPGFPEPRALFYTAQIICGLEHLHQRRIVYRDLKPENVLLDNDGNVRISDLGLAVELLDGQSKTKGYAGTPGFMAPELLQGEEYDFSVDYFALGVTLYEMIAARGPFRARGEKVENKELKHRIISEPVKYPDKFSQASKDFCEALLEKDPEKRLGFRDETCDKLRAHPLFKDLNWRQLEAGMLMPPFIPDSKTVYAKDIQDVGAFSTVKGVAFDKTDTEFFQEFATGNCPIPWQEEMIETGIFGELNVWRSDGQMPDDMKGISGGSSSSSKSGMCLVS

[5] = system: ALK5/TGFBR1
[6] = target: T3, CTK/MATK (Homo sapiens, UniProt P42679); conditions: 1 μM; Run 1, Run 2
T3 sequence (P42679 1-507): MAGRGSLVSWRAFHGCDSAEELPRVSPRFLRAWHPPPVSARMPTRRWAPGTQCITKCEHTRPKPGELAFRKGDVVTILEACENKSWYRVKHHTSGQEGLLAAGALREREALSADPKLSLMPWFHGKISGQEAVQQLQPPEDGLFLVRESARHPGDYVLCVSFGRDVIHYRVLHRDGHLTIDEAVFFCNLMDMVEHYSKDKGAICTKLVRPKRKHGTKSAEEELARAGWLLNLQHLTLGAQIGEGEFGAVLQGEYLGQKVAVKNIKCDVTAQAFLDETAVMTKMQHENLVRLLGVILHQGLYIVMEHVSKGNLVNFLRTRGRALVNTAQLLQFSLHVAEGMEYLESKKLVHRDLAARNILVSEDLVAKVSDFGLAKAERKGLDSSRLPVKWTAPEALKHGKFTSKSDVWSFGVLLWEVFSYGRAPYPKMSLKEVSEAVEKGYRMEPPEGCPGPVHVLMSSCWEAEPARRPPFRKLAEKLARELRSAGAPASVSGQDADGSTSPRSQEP

[7] = target: T4, ITK (Homo sapiens, UniProt Q08881); conditions: 1 μM; Run 1, Run 2
T4 sequence (Q08881 1-620): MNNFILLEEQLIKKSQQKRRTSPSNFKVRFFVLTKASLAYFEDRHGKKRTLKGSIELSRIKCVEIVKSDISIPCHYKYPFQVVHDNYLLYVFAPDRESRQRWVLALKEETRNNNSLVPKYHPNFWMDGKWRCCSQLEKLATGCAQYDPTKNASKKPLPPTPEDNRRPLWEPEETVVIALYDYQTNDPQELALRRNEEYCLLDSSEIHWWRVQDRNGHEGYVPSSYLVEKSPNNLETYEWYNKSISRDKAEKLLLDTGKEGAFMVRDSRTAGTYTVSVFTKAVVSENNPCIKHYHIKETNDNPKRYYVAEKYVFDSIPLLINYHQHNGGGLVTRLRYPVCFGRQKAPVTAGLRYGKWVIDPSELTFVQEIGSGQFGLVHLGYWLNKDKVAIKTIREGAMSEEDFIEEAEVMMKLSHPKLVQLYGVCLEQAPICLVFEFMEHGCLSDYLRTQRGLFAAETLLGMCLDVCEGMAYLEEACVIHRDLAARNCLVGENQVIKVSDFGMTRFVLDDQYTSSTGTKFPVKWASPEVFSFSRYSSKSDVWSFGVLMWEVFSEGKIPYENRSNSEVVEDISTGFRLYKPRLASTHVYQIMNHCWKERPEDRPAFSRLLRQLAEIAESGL

[8] = target: TTBK2 (Homo sapiens, UniProt Q6IQ55); assay: biochemical; conditions: read-out: % enzyme activity, 1 μM; Run 1, Run 2
[9] = target: STK38L/NDR2 (Homo sapiens, UniProt Q9Y2H1); assay: biochemical; conditions: read-out: % enzyme activity, 1 μM; Run 1, Run 2
[10] = target: CDK6/cyclin D3 (Homo sapiens, UniProt Q00534); assay: biochemical; conditions: read-out: % enzyme activity, 1 μM; Run 1, Run 2
CDK6/cyclin D3, sequence (Q00534 whole entry): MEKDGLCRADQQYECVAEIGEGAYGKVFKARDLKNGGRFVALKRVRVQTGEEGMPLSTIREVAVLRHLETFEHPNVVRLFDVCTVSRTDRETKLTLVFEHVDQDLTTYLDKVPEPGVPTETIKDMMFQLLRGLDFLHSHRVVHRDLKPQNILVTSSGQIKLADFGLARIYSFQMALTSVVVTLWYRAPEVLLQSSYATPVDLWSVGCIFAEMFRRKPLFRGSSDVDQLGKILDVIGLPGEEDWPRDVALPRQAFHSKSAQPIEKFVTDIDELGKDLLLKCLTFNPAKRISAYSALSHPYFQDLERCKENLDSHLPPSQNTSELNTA
CDK6/cyclin D3, sequence (P30281 whole entry partner): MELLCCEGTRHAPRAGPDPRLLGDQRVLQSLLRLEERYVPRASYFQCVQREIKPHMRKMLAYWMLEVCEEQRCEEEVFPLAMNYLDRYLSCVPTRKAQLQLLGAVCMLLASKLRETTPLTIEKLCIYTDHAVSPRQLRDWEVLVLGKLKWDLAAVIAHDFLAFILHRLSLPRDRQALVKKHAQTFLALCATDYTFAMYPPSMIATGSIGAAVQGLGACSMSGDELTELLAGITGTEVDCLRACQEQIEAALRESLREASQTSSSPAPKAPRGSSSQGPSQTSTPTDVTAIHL

NEK7, sequence (Q8TDX7 whole entry): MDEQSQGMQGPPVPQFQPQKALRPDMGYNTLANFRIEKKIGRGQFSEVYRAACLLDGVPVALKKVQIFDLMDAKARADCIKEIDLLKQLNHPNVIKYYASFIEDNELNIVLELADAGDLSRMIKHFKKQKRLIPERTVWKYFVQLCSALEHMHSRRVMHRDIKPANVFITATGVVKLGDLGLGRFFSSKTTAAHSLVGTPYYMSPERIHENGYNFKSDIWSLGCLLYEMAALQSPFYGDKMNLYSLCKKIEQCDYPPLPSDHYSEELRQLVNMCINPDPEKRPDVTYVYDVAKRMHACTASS
VRK2, sequence (Q86Y07 whole entry, species assumed): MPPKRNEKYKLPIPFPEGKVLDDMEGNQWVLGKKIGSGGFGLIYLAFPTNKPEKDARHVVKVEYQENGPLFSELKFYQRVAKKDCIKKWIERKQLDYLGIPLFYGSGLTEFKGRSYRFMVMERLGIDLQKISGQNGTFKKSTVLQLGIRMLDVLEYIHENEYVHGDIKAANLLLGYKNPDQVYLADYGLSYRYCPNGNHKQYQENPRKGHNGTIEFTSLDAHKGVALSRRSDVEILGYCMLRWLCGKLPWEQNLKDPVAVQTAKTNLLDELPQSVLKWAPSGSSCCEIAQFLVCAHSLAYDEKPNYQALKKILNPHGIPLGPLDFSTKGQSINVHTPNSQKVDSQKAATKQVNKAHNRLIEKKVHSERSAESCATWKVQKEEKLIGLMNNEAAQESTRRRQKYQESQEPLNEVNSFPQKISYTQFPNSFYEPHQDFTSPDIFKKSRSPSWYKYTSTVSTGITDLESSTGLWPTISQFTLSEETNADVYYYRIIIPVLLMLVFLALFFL
STK38L/NDR2, sequence (Q9Y2H1 whole entry): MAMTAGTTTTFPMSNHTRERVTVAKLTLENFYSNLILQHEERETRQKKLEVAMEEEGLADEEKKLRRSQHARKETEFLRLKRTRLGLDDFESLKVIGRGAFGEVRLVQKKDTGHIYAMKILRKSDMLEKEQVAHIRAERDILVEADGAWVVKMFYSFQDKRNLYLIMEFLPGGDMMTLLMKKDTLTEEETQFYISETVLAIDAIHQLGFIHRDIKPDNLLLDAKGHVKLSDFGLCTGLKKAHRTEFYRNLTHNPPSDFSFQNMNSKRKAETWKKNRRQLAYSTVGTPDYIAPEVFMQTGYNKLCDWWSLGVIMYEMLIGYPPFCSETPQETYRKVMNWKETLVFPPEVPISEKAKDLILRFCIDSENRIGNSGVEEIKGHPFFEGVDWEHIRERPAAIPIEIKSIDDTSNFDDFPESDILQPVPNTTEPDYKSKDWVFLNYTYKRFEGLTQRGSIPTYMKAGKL
TTBK2, sequence (Q6IQ55 whole entry): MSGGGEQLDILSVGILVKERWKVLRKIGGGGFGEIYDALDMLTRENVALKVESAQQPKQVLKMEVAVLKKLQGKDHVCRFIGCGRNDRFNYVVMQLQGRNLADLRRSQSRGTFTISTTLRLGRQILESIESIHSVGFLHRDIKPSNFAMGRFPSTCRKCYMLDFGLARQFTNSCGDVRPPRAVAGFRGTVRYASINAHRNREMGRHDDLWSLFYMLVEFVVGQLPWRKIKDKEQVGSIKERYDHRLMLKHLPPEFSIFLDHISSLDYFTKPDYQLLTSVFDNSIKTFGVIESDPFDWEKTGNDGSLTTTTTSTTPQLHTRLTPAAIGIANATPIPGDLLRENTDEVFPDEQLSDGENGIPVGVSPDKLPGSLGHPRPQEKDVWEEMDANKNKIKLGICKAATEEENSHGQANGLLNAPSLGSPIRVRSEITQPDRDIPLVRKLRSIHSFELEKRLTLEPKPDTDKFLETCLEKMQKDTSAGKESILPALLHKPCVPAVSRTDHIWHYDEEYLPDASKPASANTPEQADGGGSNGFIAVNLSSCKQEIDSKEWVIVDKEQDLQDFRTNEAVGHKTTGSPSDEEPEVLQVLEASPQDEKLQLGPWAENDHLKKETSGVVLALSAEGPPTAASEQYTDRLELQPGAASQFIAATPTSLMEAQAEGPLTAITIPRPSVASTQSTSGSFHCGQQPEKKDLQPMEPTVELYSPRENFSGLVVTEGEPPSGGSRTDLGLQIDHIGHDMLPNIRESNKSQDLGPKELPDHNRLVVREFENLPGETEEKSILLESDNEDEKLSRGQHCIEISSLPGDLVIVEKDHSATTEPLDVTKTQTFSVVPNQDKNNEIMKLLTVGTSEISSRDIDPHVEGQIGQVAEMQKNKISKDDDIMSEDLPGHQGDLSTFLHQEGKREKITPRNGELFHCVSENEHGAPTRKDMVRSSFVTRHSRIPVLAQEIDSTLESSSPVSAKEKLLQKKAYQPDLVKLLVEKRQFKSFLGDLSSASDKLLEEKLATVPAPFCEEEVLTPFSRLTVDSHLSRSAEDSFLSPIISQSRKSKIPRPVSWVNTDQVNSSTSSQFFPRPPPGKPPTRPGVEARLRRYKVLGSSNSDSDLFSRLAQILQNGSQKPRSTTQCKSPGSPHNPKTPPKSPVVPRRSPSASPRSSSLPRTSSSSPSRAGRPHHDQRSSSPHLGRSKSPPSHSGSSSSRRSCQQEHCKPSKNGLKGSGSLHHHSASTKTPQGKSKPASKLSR

SMILES | % enzyme activity [1] [%] | % enzyme activity [2] [%] | % enzyme activity [3] [%] | % enzyme activity [4] [%] | % enzyme activity at 1 μM [5] | % enzyme activity [6] [%] | % enzyme activity [7] [%] | remaining activity at 1 µM [8] [%] | remaining activity at 1 µM [9] [%] | remaining activity at 1 µM [10] [%]
COc1cc(-c2cncc(-c3ccc(N4CCN(C)CC4)cc3)c2C)cc(F)c1C(N)=O [Compound 26a, 2-Fluoro-6-methoxy-4-(4-methyl-5-(4-(4-methylpiperazin-1-yl)phenyl)pyridin-3-yl)benzamide] | 87.47 | 96.68 | 88.30 | 93.15 | 82.5% and 82.3% | 94.85 | 103.48 | 97.1 | 99.4 | 86.3
COc1cc(-c2cncc(-c3ccc(N4C[C@@H](C)N(C)[C@@H](C)C4)cc3)c2C)cc(F)c1C(N)=O [Compound 26c, 2-Fluoro-6-methoxy-4-(4-methyl-5-(4-((3R,5S)-3,4,5-trimethylpiperazin-1-yl)phenyl)pyridin-3-yl)benzamide] | 89.63 | 97.32 | 96.01 | 94.01 | 97.2% and 96.6% | 98.62 | 100.51 | 97.8 | 104 | 103
